From patent publication US20030118646A1, “(R, S'),(R, R')-amphetaminil, compositions and uses thereof” (priority 2001, published 2003)

Tests used:
[1] = test system: stereotyped behaviour in normal rats; assay: Induction of stereotyped behaviour in normal rats (stereotypy score 0-7); assay type: in vivo, Male Wistar rats; conditions: for Stereotypy (Peak) / Stereotypy (Total): normal rats, dose not given; for Stereotypy (Peak) / Stereotypy (Total) / Effect on stereotypy: s.c.; for Stereotypy (Peak): stereotypy score at time of peak effect; for Stereotypy (Total): total stereotypy score; for Effect on stereotypy: whole dose range tested (amphetamine 0.1-5, fusaric acid 20-80, amphetaminils 0.1-10 mg/kg), 300 min
Method: (§1) Male Wistar rats (n=4 per group) were randomly allocated to each drug treatment group. Drugs were administered such that, with the exception of fusaric acid, each rat in each group received all doses of the drug or vehicle in a semi random manner according to the modified Latin Square in Table 1. Compounds were administered at the doses: 0.1, 1 and 10 mg/kg s.c. in 100% DMSO (vehicle). Amphetamine was administered at 0.1, 1 and 5 mg/kg s.c. in saline (vehicle). Fusaric acid was administered at 20, 40 and 80 mg/kg s.c. in saline (vehicle). Rats received each dose of fusaric acid (20, 40 and 80 mg/kg), doses given in order, starting with vehicle. A one-week interval was provided between doses.
(§2) At the start of the experiment, rats were placed in standard perspex behaviour boxes with a visible grid on the floor to allow determination of locomotor activity. The animals were allowed to acclimatise to their environment for 1 hour prior to drug/saline administration. Following drug administration animals were returned to the behaviour cages and locomotor activity was assessed for a further 5 hours or until baseline (zero activity for 30 minutes) was achieved, whichever was sooner. Locomotor activity was assessed by videoing the rats throughout the experiment, and counting the number of times a rat crossed a grid line over a period of 5 minutes every 10 minutes. Throughout the experiment animals were scored for stereotyped behaviours for 15 seconds every 10 minutes by a trained observer using the scoring methods described in Table 2.
The mean and standard error for stereotypy activity for 15 seconds every 10 minutes for each rat at each time point was determined. […] Cumulative activity during the 300 min was also calculated, and the effect of dose of drug was analyzed by Kruskall Wallis one-way ANOVA (GraphPad Prizm). Data was also analysed for significant fit to a sigmoidal-shaped log dose-response curve using non-linear regression analysis (GraphPad Prizm)

[2] = test system: locomotor activity in normal rats; assay: Locomotor activity in normal rats (grid line crossings); assay type: in vivo, Male Wistar rats; conditions: for Locomotor (Peak) / Locomotor (Total): normal rats, dose not given; for Locomotor (Peak) / Locomotor (Total) / Effect on locomotor activity: s.c.; for Locomotor (Peak): at time of peak effect; for Locomotor (Total): total (cumulative) effect; for Ratio (Peak): ratio locomotor/stereotypy at time of peak effect; for Ratio (Total): ratio locomotor/stereotypy, total effect; for Effect on locomotor activity: whole dose range tested (amphetamine 0.1-5, fusaric acid 20-80, amphetaminils 0.1-10 mg/kg), 300 min
Method: as §1, §2
Locomotor activity Data The mean and standard error for locomotor activity during 10 minutes for each rat at each time point was determined. […] Cumulative activity during the 300 min was also calculated, and the effect of dose of drug was analyzed by 1 way repeated measures ANOVA followed by Dunnett's test (GraphPad Prizm). Data was also analysed for significant fit to a sigmoidal-shaped log dose-response curve using non-linear regression analysis (GraphPad Prizm).

| Compound | Duration of stereotypy ([1]; 10 mg/kg s.c.) | Differences in overall stereotypy between dose groups ([1]; 0.1-10 mg/kg s.c., Kruskall Wallis) | Stereotypy (Peak) [1] | Stereotypy (Total) [1] | Effect on stereotypy [1] | Locomotor (Peak) [2] | Locomotor (Total) [2] | Ratio (Peak) [2] | Ratio (Total) [2] | Effect on locomotor activity [2] | Overall stereotypy during the 300 min ([1]; 5 mg/kg s.c.) | Time of maximum effect on locomotor activity after administration ([2]; 5 mg/kg s.c.) | Cumulative locomotor activity during the 300 min ([2]; 5 mg/kg s.c., compared to vehicle) | Stereotypy compared with racemic amphetaminil ([1]; FIGS. 7 and 8) | Locomotor/stereotypy ratio compared with racemic amphetaminil ([2]; at both the time of peak effect and total effect) |
| --- | --- | --- | --- | --- | --- | --- | --- | --- | --- | --- | --- | --- | --- | --- | --- |
| CC(Cc1ccccc1)NC(C#N)c1ccccc1 (racemic) [Racemic amphetaminil, alpha-[(1-methyl-2-phenylethyl)amino]benzeneacetonitrile] | sustained for the duration of the experiment | did not reach statistical significance | 5.0 | 115 | increased stereotypy in a log dose-related manner | 37 | 560 | 7.4 | 4.9 | increased locomotor activity only at the highest dose of 10 mg/kg |  |  |  |  |  |
| CC(N)Cc1ccccc1 (stereo not shown) [Amphetamine] |  |  | 5 | 81 | log dose-related increase stereotypy | 125 | 850 | 25 | 10.5 | dose-related increase in locomotor activity | tended to increase overall stereotypy | 30 min | significantly increased |  |  |
| C[C@H](Cc1ccccc1)NC(C#N)c1ccccc1 (stereo partly drawn) [(R,R′), (R,S′)-amphetaminil, alpha-[(1R-methyl-2-phenylethyl)amino]-benzeneacetonitrile] |  |  | 3.3 | 57 | tended to increase stereotypy at 10 mg/kg | 62 | 625 | 18.8 | 11 | increased locomotor activity only at the highest dose of 10 mg/kg |  |  |  | less stereotypy than the racemic form of amphetaminil | higher ratio |
